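Each compound was tested at five concentrations against cells in 96-well plates for 48 hours. GI50 is the concentration that inhibits growth by half. TGI marks complete inhibition of growth.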
Columns and labels:
Assay in all cases: growth of human tumour cells (NCI), 48 h
A549 NSCLC = tested on: A549 NSCLC
T-47D breast = tested on: T-47D breast
A498 renal = tested on: A498 renal
CCRF-CEM leukemia = tested on: CCRF-CEM leukemia
COLO 205 colon = tested on: COLO 205 colon
RPMI-8226 leukemia = tested on: RPMI-8226 leukemia
SNB-19 CNS = tested on: SNB-19 CNS
HOP-62 NSCLC = tested on: HOP-62 NSCLC
KM12 colon = tested on: KM12 colon
OVCAR-5 ovarian = tested on: OVCAR-5 ovarian
SK-MEL-2 melanoma = tested on: SK-MEL-2 melanoma
SK-MEL-5 melanoma = tested on: SK-MEL-5 melanoma
NCI-H23 lung = tested on: NCI-H23 lung
TK-10 renal = tested on: TK-10 renal
HCT-15 colon = tested on: HCT-15 colon
SR leukemia = tested on: SR leukemia
HOP-92 NSCLC = tested on: HOP-92 NSCLC
HT29 colon = tested on: HT29 colon
PC-3 prostate = tested on: PC-3 prostate
M14 melanoma = tested on: M14 melanoma
SK-OV-3 ovarian = tested on: SK-OV-3 ovarian
EKVX NSCLC = tested on: EKVX NSCLC
NCI/ADR-RES ovarian = tested on: NCI/ADR-RES ovarian
SNB-75 CNS = tested on: SNB-75 CNS
SK-MEL-28 melanoma = tested on: SK-MEL-28 melanoma
SN12C renal = tested on: SN12C renal
IGROV1 ovarian = tested on: IGROV1 ovarian
UACC-257 melanoma = tested on: UACC-257 melanoma
SF-295 CNS = tested on: SF-295 CNS
ACHN renal = tested on: ACHN renal
NCI-H460 lung = tested on: NCI-H460 lung
HL-60(TB) leukemia = tested on: HL-60(TB) leukemia
HCC-2998 colon = tested on: HCC-2998 colon
HS 578T breast = tested on: HS 578T breast
UACC-62 melanoma = tested on: UACC-62 melanoma
NCI-H226 lung = tested on: NCI-H226 lung
OVCAR-8 ovarian = tested on: OVCAR-8 ovarian
HCT-116 colon = tested on: HCT-116 colon
MCF7 breast = tested on: MCF7 breast
CAKI-1 renal = tested on: CAKI-1 renal
U251 CNS = tested on: U251 CNS
BT-549 breast = tested on: BT-549 breast
MDA-MB-231 breast = tested on: MDA-MB-231 breast
NCI-H522 lung = tested on: NCI-H522 lung
SF-539 CNS = tested on: SF-539 CNS
OVCAR-3 ovarian = tested on: OVCAR-3 ovarian
MDA-MB-435 = tested on: MDA-MB-435
OVCAR-4 ovarian = tested on: OVCAR-4 ovarian
SF-268 CNS = tested on: SF-268 CNS
MOLT-4 leukemia = tested on: MOLT-4 leukemia
SW-620 colon = tested on: SW-620 colon
K-562 leukemia = tested on: K-562 leukemia
DU-145 prostate = tested on: DU-145 prostate
786-0 renal = tested on: 786-0 renal
UO-31 renal = tested on: UO-31 renal

Structure (SMILES): O=C(Nc1ccc(-n2cc(-c3ccncc3)c(-c3ccc(Cl)c(O)c3)n2)cc1)c1ccc(Cl)c(Cl)c1
- GI50 (A549 NSCLC): 6.71 µM
- TGI (A549 NSCLC): > 100 µM
- GI50 (T-47D breast): 8.09 µM
- TGI (T-47D breast): > 100 µM
- GI50 (A498 renal): 35.7 µM
- TGI (A498 renal): > 100 µM
- GI50 (CCRF-CEM leukemia): 4.52 µM
- TGI (CCRF-CEM leukemia): > 100 µM
- GI50 (COLO 205 colon): 4.3 µM
- TGI (COLO 205 colon): > 100 µM
- GI50 (RPMI-8226 leukemia): 0.736 µM
- TGI (RPMI-8226 leukemia): 3.47 µM
- GI50 (SNB-19 CNS): > 100 µM
- TGI (SNB-19 CNS): > 100 µM
- GI50 (HOP-62 NSCLC): 0.711 µM
- TGI (HOP-62 NSCLC): 2.65 µM
- GI50 (KM12 colon): 3.05 µM
- TGI (KM12 colon): > 100 µM
- GI50 (OVCAR-5 ovarian): 10.2 µM
- TGI (OVCAR-5 ovarian): > 100 µM
- GI50 (SK-MEL-2 melanoma): 4.05 µM
- TGI (SK-MEL-2 melanoma): > 100 µM
- GI50 (SK-MEL-5 melanoma): 1.15 µM
- TGI (SK-MEL-5 melanoma): 2.43 µM
- GI50 (NCI-H23 lung): 4.18 µM
- TGI (NCI-H23 lung): > 100 µM
- GI50 (TK-10 renal): > 100 µM
- TGI (TK-10 renal): > 100 µM
- GI50 (HCT-15 colon): 1.12 µM
- TGI (HCT-15 colon): > 100 µM
- GI50 (SR leukemia): 3.6 µM
- TGI (SR leukemia): > 100 µM
- GI50 (HOP-92 NSCLC): 8.97 µM
- TGI (HOP-92 NSCLC): > 100 µM
- GI50 (HT29 colon): 2.6 µM
- TGI (HT29 colon): > 100 µM
- GI50 (PC-3 prostate): 4.18 µM
- TGI (PC-3 prostate): > 100 µM
- GI50 (M14 melanoma): 2.35 µM
- TGI (M14 melanoma): 7.56 µM
- GI50 (SK-OV-3 ovarian): 2.08 µM
- TGI (SK-OV-3 ovarian): > 100 µM
- GI50 (EKVX NSCLC): 5.81 µM
- TGI (EKVX NSCLC): > 100 µM
- GI50 (NCI/ADR-RES ovarian): 4.91 µM
- TGI (NCI/ADR-RES ovarian): > 100 µM
- GI50 (SNB-75 CNS): 3.92 µM
- TGI (SNB-75 CNS): > 100 µM
- GI50 (SK-MEL-28 melanoma): 2.94 µM
- TGI (SK-MEL-28 melanoma): > 100 µM
- GI50 (SN12C renal): 5.7 µM
- TGI (SN12C renal): > 100 µM
- GI50 (IGROV1 ovarian): > 100 µM
- TGI (IGROV1 ovarian): > 100 µM
- GI50 (UACC-257 melanoma): 4.74 µM
- TGI (UACC-257 melanoma): > 100 µM
- GI50 (SF-295 CNS): 1.01 µM
- TGI (SF-295 CNS): 2.77 µM
- GI50 (ACHN renal): 4.2 µM
- TGI (ACHN renal): > 100 µM
- GI50 (NCI-H460 lung): 3.09 µM
- TGI (NCI-H460 lung): > 100 µM
- GI50 (HL-60(TB) leukemia): 2.97 µM
- TGI (HL-60(TB) leukemia): 6.35 µM
- GI50 (HCC-2998 colon): 3.43 µM
- TGI (HCC-2998 colon): 19.7 µM
- GI50 (HS 578T breast): 3.83 µM
- TGI (HS 578T breast): > 100 µM
- GI50 (UACC-62 melanoma): 3.22 µM
- TGI (UACC-62 melanoma): 22.4 µM
- GI50 (NCI-H226 lung): 26.1 µM
- TGI (NCI-H226 lung): > 100 µM
- GI50 (OVCAR-8 ovarian): 4.68 µM
- TGI (OVCAR-8 ovarian): > 100 µM
- GI50 (HCT-116 colon): 2.89 µM
- TGI (HCT-116 colon): > 100 µM
- GI50 (MCF7 breast): 4.63 µM
- TGI (MCF7 breast): > 100 µM
- GI50 (CAKI-1 renal): 3.67 µM
- TGI (CAKI-1 renal): 21.3 µM
- GI50 (U251 CNS): 2.65 µM
- TGI (U251 CNS): > 100 µM
- GI50 (BT-549 breast): 5.04 µM
- TGI (BT-549 breast): > 100 µM
- GI50 (MDA-MB-231 breast): 1.17 µM
- TGI (MDA-MB-231 breast): > 100 µM
- GI50 (NCI-H522 lung): 5.34 µM
- TGI (NCI-H522 lung): > 100 µM
- GI50 (SF-539 CNS): 0.694 µM
- TGI (SF-539 CNS): > 100 µM
- GI50 (OVCAR-3 ovarian): > 100 µM
- TGI (OVCAR-3 ovarian): > 100 µM
- GI50 (MDA-MB-435): 2.73 µM
- TGI (MDA-MB-435): > 100 µM
- GI50 (OVCAR-4 ovarian): > 100 µM
- TGI (OVCAR-4 ovarian): > 100 µM
- GI50 (SF-268 CNS): > 100 µM
- TGI (SF-268 CNS): > 100 µM
- GI50 (MOLT-4 leukemia): 4.02 µM
- TGI (MOLT-4 leukemia): > 100 µM
- GI50 (SW-620 colon): 4.42 µM
- TGI (SW-620 colon): > 100 µM
- GI50 (K-562 leukemia): 1.32 µM
- TGI (K-562 leukemia): > 100 µM
- GI50 (DU-145 prostate): > 100 µM
- TGI (DU-145 prostate): > 100 µM
- GI50 (786-0 renal): 1.78 µM
- TGI (786-0 renal): 4.3 µM
- GI50 (UO-31 renal): 2.83 µM
- TGI (UO-31 renal): 8.62 µM
